Laboratory results taken from US20230233690A1, “ANDROGEN RECEPTOR PROTEIN DEGRADERS” (THE REGENTS OF THE UNIVERSITY OF MICHIGAN, priority 2020, published 2023).
Blank lines part the entries; values can stand above or below the compound they belong to.

Experiments:
[1] = molecular target: T1, AR protein (Homo sapiens, UniProt P10275, T878A); test: Western blotting of AR protein degradation in LNCaP cells; assay type: cell-based; conditions: 24 hr treatment
T1 construct: endogenous in cells; host or cells: LNCaP
T1 sequence (P10275 1-920 T878A): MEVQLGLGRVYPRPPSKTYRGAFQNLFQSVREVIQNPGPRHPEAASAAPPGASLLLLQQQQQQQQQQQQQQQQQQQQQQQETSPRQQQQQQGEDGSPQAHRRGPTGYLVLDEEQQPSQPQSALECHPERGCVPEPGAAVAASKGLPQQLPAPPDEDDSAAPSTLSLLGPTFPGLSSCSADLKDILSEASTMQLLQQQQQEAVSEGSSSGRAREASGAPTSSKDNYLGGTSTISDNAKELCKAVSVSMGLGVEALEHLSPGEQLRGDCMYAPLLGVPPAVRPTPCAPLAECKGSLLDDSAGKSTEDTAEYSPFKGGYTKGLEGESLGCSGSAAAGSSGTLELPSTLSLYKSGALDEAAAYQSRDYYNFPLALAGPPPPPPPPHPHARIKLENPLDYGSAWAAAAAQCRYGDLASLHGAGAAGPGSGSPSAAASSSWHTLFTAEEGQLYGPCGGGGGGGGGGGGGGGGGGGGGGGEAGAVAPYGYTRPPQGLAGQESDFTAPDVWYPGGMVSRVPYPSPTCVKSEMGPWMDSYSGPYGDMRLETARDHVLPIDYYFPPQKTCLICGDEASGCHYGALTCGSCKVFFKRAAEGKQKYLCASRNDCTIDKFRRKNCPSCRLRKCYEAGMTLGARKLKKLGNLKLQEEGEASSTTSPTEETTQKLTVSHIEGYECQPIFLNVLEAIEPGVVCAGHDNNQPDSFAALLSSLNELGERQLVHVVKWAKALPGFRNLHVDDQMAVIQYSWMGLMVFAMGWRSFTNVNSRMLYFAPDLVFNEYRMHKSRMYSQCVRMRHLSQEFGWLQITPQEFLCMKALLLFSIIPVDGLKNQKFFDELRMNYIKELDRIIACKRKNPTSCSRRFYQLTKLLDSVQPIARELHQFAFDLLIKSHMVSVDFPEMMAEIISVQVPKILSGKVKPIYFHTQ
Description: (§1) The appropriate cell line, e.g., prostate cancer LNCaP, Vcap, or MDA-MB-453 cell line, was treated with Compounds of the Disclosure. The treated cells were lysed with RIPA buffer. The AR level in the cell lysates was examined by western blotting and a specific AR antibody (ab194196, Abcam, Cambridge, Mass. 02139) with concentration of 1:20,000. GAPDH was used as a loading control.
(§2) Bands were quantified with ImageJ software. The relative numbers of each band obtained from normalization with its corresponding GAPDH level were compared with Prism 8 software. The DC50 values were produced from Prism 8, and the DC90 values were calculated with an equation=Bottom+(Top−Bottom)/(1+10^((Log EC50−X)*HillSlope) based on DC50 and Hillslope values.
(§3) The amount of AR protein degradation in LNCaP, VCap, and MDA-MB-453 cells caused representative Compounds of the Disclosure at the concentrations indicated is presented in Table 4 and Table 5.

[2] = system: AR protein; test: Western blotting of AR protein degradation in MDA-MB-453 cells; assay type: cell-based; set-up: key: A: >90% degradation (24 hr treatment); B: >50% degradation but <90% (24 hr treatment); C: >10% degradation but <50% (24 hr treatment); D: No significant degradation (24 hr treatment); conditions: 24 hr treatment
Description: as §1, §2, §3

[3] = PK parameters in male ICR mice; assay type: in vivo
Description: (§4) The pharmacokinetics (PK) of representative Compounds of the Disclosure were evaluated in mice or rats to provide an assessment of their oral bioavaibility. All animal experiments were performed under the guidelines of the University of Michigan Committee for Use and Care of Animals and using an approved animal protocol.

[4] = PK parameters in male SD rats; assay type: in vivo; conditions: for AUC(0-t) / clearance / Vd / Cmax / half-life: rat, in vivo; for clearance: read-out: Cl-obs; for Vd: read-out: Vss
Description: as §4

AR protein degradation LNCAP 10 nM ([1]; 10 nM): A (>90% degradation (24 hr treatment)) | AR protein degradation LNCAP 100 nM ([1]; 100 nM): A (>90% degradation (24 hr treatment))
SMILES: CC1(C)[C@H](NC(=O)c2ccc(N3CCN(CCCCCOc4cccc5c4CN(C4CCC(=O)NC4=O)C5=O)CC3)nc2)C(C)(C)[C@H]1Oc1ccc(C#N)c(Cl)c1 (some centres unmarked) [compound 50]

SMILES: N#Cc1ccc(O[C@@H]2CCC[C@@H](Oc3ccc(C4CCN(CC5CCN(c6cccc7c6C(=O)N(C6CCC(=O)NC6=O)C7=O)CC5)CC4)cc3)C2)cc1Cl (some centres unmarked) [compound 54]
AR protein degradation MDA-MB-453 100 nM [2]: C (>10% degradation but <50% (24 hr treatment))

SMILES: N#Cc1ccc(O[C@@H]2CCC[C@@H](Oc3ccc(N4CCN(CC5CCN(c6ccc7c(c6)C(=O)N(C6CCC(=O)NC6=O)C7=O)CC5)CC4)cc3)C2)cc1Cl (some centres unmarked) [compound 55]
AR protein degradation MDA-MB-453 100 nM [2]: C (>10% degradation but <50% (24 hr treatment))

SMILES: N#Cc1ccc(OC2CCC(Oc3ccc(C#CC4CCN(CC5CCN(c6ccc7c(c6)C(=O)N(C6CCC(=O)NC6=O)C7=O)CC5)CC4)cc3)CC2)cc1Cl (centres unmarked) [compound 51]
AR protein degradation MDA-MB-453 10 nM [2]: D | AR protein degradation MDA-MB-453 100 nM [2]: D

SMILES: N#Cc1ccc(O[C@H]2CC[C@H](Oc3ccc(C4CCN(CC5CCN(c6ccc7c(c6)C(=O)N(C6CCC(=O)NC6=O)C7=O)CC5)CC4)cc3)CC2)cc1Cl (some centres unmarked) [compound 52]
AR protein degradation MDA-MB-453 10 nM [2]: D | AR protein degradation MDA-MB-453 100 nM [2]: D

SMILES: CC1(C)[C@H](NC(=O)c2ccc(N3CCN(C4CCN(c5ccc6c(c5)C(=O)N(C5CCC(=O)NC5=O)C6=O)CC4)CC3)cc2)C(C)(C)[C@H]1Oc1ccc(C#N)c(Cl)c1 (some centres unmarked) [Cpd. No. 114, N-((1r,3r)-3-(3-chloro-4-cyanophenoxy)-2,2,4,4-tetramethylcyclobutyl)-4-(4-(1-(2-(2,6-dioxopiperidin-3-yl)-1,3-dioxoisoindolin-5-yl)piperidin-4-yl)piperazin-1-yl)benzamide]
AUC(0-t) ([3]; IV 2 mg/kg): 15758.8 ng·h/mL | Cl-obs ([3]; IV 2 mg/kg): 1.7 mL/min/kg | Vss ([3]; IV 2 mg/kg): 1.5 L/kg | AUC(0-t) ([3]; PO 5 mg/kg): 14587.7 ng·h/mL | Cmax ([3]; PO 5 mg/kg): 980.1 ng/mL | F ([3]; PO 5 mg/kg): 37.0% | T1/2 ([3]; PO 5 mg/kg): 11.2 h | F ([4]; PO 5 mg/kg): 11.4% | AUC(0-t) ([4]; IV 2 mg/kg): 1190 ng·h/mL | clearance ([4]; IV 2 mg/kg): 7.7 mL/min/kg | Vd ([4]; IV 2 mg/kg): 2.5 L/kg | AUC(0-t) ([4]; PO 5 mg/kg): 4160 ng·h/mL | Cmax ([4]; PO 5 mg/kg): 100 ng/mL | half-life ([4]; PO 5 mg/kg): 8.9 h

SMILES: N#Cc1ccc(O[C@H]2CC[C@H](Oc3ccc(C4CCN(CC5CCN(c6cccc7c6C(=O)N(C6CCC(=O)NC6=O)C7=O)CC5)CC4)cc3)CC2)cc1Cl (some centres unmarked) [compound 53]
AR protein degradation MDA-MB-453 10 nM [2]: D | AR protein degradation MDA-MB-453 100 nM [2]: C (>10% degradation but <50% (24 hr treatment))

F ([3]; PO 5 mg/kg): 62.2% | AUC(0-t) ([3]; mouse, in vivo, IV 2 mg/kg, read-out: AUC0-t): 14600 ng·h/mL | clearance ([3]; mouse, in vivo, IV 2 mg/kg, read-out: Cl-obs): 1.7 mL/min/kg | Vd ([3]; mouse, in vivo, IV 2 mg/kg, read-out: Vss): 1.7 L/kg | half-life ([3]; mouse, in vivo, PO 5 mg/kg): 10.3 h | AUC(0-t) ([3]; mouse, in vivo, PO 5 mg/kg, read-out: AUC0-t): 22700 ng·h/mL | Cmax ([3]; mouse, in vivo, PO 5 mg/kg, read-out: Cmax): 1820 ng/mL | F ([4]; PO 5 mg/kg): 25.0% | AUC(0-t) ([4]; IV 2 mg/kg): 9140 ng·h/mL | clearance ([4]; IV 2 mg/kg): 3.1 mL/min/kg | Vd ([4]; IV 2 mg/kg): 2 L/kg | AUC(0-t) ([4]; PO 5 mg/kg): 5720 ng·h/mL | Cmax ([4]; PO 5 mg/kg): 414 ng/mL | half-life ([4]; PO 5 mg/kg): 10.4 h
SMILES: CC1(C)[C@H](NC(=O)c2ccc(N3CCN(C4CN(c5ccc6c(c5)C(=O)N(C5CCC(=O)NC5=O)C6=O)C4)CC3)cc2)C(C)(C)[C@H]1Oc1ccc(C#N)c(Cl)c1 (some centres unmarked) [Cpd. No. 113, N-((1r,3r)-3-(3-chloro-4-cyanophenoxy)-2,2,4,4-tetramethylcyclobutyl)-4-(4-(1-(2-(2,6-dioxopiperidin-3-yl)-1,3-dioxoisoindolin-5-yl)azetidin-3-yl)piperazin-1-yl)benzamide]
